Legend:
14-3-3-E = target: T1, 14-3-3-E (Rattus norvegicus, UniProt P62260); assay: Cellular thermal shift assay (CETSA) in PC12^G93A cell lysate; assay type: binding; conditions: n = 3
T1 construct: isothermal dose–response (ITDR) CETSA curve of 14-3-3-E at 63 °C (B) in PC12^G93A cell lysate; endogenous in cells; host or cells: PC12-SOD1^G93A YFP cell lysate (freeze/thaw)
T1 sequence (P62260 1-255): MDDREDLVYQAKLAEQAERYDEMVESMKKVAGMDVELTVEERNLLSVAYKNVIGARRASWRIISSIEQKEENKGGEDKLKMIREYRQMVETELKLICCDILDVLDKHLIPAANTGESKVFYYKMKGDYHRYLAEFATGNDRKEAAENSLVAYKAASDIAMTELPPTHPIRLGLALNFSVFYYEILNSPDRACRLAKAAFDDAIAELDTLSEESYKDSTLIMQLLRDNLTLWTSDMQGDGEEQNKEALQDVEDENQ
Method: Before the experiments were initiated, PC12-SOD1^G93A YFP cells were maintained in DMEM high-glucose media supplemented with 10% horse serum, 5% Tet-approved FBS, 1% Pen-strep, 1X L-glutamine, 200 μg/mL hygromycin, and 100 μg/mL G418. On the day preceding the experiments, the cells were plated onto two separate 10 cm dishes at a concentration of 10 × 10^6 cells per 10 mL of the supplemented media. They were then incubated overnight at 37 °C in a CO2 incubator (5% CO2) until they achieved 90–95% confluency.
The cell medium was subsequently removed, and the cells were rinsed with 1X PBS before being detached using 1 mL of 1X trypsin. To this, 5 mL of 1X PBS solution was added, and the cells were then resuspended, transferred to two separate 15 mL conical tubes, and centrifuged at 1100 rpm for 3 min. The supernatant was discarded, and the cells were resuspended in 1 mL of 1X PBS containing a […] (EDTA-free) (Sigma-Aldrich, 1:100 v/v). […]
SDS PAGE was conducted using a 15-well Novex Bis-Tris 4–12% prepacked gel and 1X MES-SDS gel running buffer (comprising 50 mM MES, 50 mM Tris, 1 mM EDTA, and 0.1% SDS) at a constant voltage of […] over a duration of 2 h. […] These raw immunoblot images were analyzed by using ImageJ software. Data (expressed as relative band intensity %) were normalized relative to the samples that were incubated at the lowest temperature. […]

PC12 SOD1^G93A cells = assay: Neuroprotection against MG-132-induced toxicity in PC12 cells expressing mutant SOD1^G93A (calcein-AM viability); assay type: cell-based; conditions: Rattus norvegicus, PC-12, read-out: EC50 to ameliorate MG132-induced protein aggregation and cellular toxicity
Method: With this information in hand, we implemented a phenotypic drug discovery approach to identify a novel therapeutic for treating ALS. The study employed a rat PC12 cell-based assay that expresses SOD1^G93A mutation for screening a chemical library of more than 50,000 compounds to identify promising hits (Figure 1 compounds 3 and 4). The hits are based on attenuating proteasome inhibitor MG-132-induced SOD1^G93A cellular toxicity.
Viability EC50 values were determined according to the previously reported assay procedure.[43] Briefly, PC12 cells were seeded at 15,000 cells/well in 96-well plates, and the medium was changed to remove the doxycycline 4 days prior to compound addition. Compounds were assayed in 12-point dose–response experiments to determine the potency and efficacy. The highest compound concentration tested was 32 μM, which was decreased by half with each subsequent dose. After a 24 h incubation with the analytes, MG-132 (400 nM) was added and the cells were incubated at 37 °C for 24 h. The cells were washed twice with PBS. Calcein-AM was added at a final concentration of 1 μM for 20 min at room temperature, and the fluorescence intensity was read in a POLARstar fluorescence plate reader (BMG). EC50 values were determined by standardizing fluorescent signal to DMSO treated controls. […] The presented data represent the mean average of duplicate experiments.

Structure (SMILES) | CETSA melting curve: 14-3-3-E in the soluble fraction versus DMSO control (14-3-3-E; 500 μM P2, cell lysate, difference between 60 and 64 °C, maximum at 63 °C) | ITDR CETSA: relative band intensity of 14-3-3-E in the soluble fraction (14-3-3-E; 63 °C, increasing concentrations, cell lysate) | EC50 (PC12 SOD1^G93A cells) [nM]
O=c1cc(COc2cc(Cl)cc(Cl)c2)[nH][nH]1 [P2] | markedly reduced the presence of 14-3-3-E in the soluble fraction | clear decrease in the relative band intensity of 14-3-3-E | –
C#CCN(Cc1cc(=O)[nH][nH]1)Cc1c(F)c(F)c(N=[N+]=[N-])c(F)c1F [PRAPP, 5-(((4-Azido-2,3,5,6-tetrafluorobenzyl)(prop-2-yn-1-yl)amino)methyl)-1,2-dihydro-3H-pyrazol-3-one] | – | – | 190
